Reference: patent US9469615B2, “Quinoxalines and AZA-quinoxalines as CRTH2 receptor modulators” (Merck Sharp & Dohme Corp., priority 2010, dated 2016)

Biological target: T1, hCRTH2 (Homo sapiens, UniProt Q9Y5Y4)
T1 construct: expressed in transfected cells; host or cells: HEK (human embryonic kidney) cells expressing hCRTH2; membrane preparation
T1 sequence (Q9Y5Y4 1-395): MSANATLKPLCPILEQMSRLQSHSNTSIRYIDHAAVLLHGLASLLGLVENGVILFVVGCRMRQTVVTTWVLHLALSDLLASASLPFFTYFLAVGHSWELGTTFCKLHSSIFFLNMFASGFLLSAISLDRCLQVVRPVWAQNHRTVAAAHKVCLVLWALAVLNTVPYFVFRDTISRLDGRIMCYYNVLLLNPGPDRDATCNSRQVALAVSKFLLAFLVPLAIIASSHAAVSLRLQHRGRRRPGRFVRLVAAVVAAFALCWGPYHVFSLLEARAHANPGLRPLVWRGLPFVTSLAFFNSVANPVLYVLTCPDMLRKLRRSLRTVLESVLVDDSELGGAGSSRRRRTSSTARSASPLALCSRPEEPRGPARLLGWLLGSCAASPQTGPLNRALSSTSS
Experiment: Radioligand binding assay ([3H]PGD2 competition, HEK-hCRTH2 membranes)
Summary of the method: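 Competition binding with 3.0 nM [3H]PGD2 and 8-20 μg HEK-hCRTH2 membrane protein in 50 mM Tris-HCl pH 7.4, 1 mM EDTA, 2 mM MnCl2, 1% Me2SO, 60 min at room temperature. Nonspecific binding defined with 10 μM PGD2; bound radioactivity counted after filtration.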

SMILES	Ki ([3H]PGD2 competition, Table B)	Ki ([3H]PGD2 binding, values in text)
O=C(N[C@@H]1CCCc2cc(F)ccc21)c1ccc2nc(-c3ccccc3)c(CCCC(F)(F)C(=O)O)nc2c1 [compound 480, (R)-2,2-difluoro-5-(7-((6-fluoro-1,2,3,4-tetrahydronaphthalen-1-yl)carbamoyl)-3-phenylquinoxalin-2-yl)pentanoic acid]	2.1 to 20 nM	
C[C@H](CCCc1nc2cc(C(=O)N[C@@H](C)c3ccc(F)cc3)ccc2nc1-c1ccc(F)cc1)C(=O)O [compound 481, (R)-5-(3-(4-fluorophenyl)-7-(((S)-1-(4-fluorophenyl)ethyl)carbamoyl)quinoxalin-2-yl)-2-methylpentanoic acid]	20.1 to 200 nM	
C[C@@H](CCCc1nc2cc(C(=O)N[C@@H]3CCCc4ccccc43)ccc2nc1-c1ccc(F)cc1)C(=O)O [compound 482, (S)-5-(3-(4-fluorophenyl)-7-(((R)-1,2,3,4-tetrahydronaphthalen-1-yl)carbamoyl)quinoxalin-2-yl)-2-methylpentanoic acid]	2.1 to 20 nM	
C[C@@H](CCCc1nc2cc(C(=O)N[C@H]3CCCc4ccccc43)ccc2nc1-c1ccc(F)cc1)C(=O)O [compound 483, (S)-5-(3-(4-fluorophenyl)-7-(((S)-1,2,3,4-tetrahydronaphthalen-1-yl)carbamoyl)quinoxalin-2-yl)-2-methylpentanoic acid]	2.1 to 20 nM	
C[C@@H](CCCc1nc2cc(C(=O)N[C@H](C)c3ccc(F)cc3)ccc2nc1-c1ccc(F)cc1)C(=O)O [compound 484, (S)-5-(3-(4-fluorophenyl)-7-(((R)-1-(4-fluorophenyl)ethyl)carbamoyl)quinoxalin-2-yl)-2-methylpentanoic acid]	2.1 to 20 nM	
C[C@H](NC(=O)c1ccc2nc(-c3ccc(F)cc3)c(CCC[C@H](C)C(=O)O)nc2c1)c1ccc(F)cc1 [compound 485, (S)-5-(3-(4-fluorophenyl)-7-(((S)-1-(4-fluorophenyl)ethyl)carbamoyl)quinoxalin-2-yl)-2-methylpentanoic acid]	2.1 to 20 nM	
O=C(N[C@@H]1CCCc2ccccc21)c1ccc2nc(-c3ccc(F)cc3)c(CCCC(F)(F)C(=O)O)nc2c1 [compound 486, (R)-2,2-difluoro-5-(3-(4-fluorophenyl)-7-((1,2,3,4-tetrahydronaphthalen-1-yl)carbamoyl)quinoxalin-2-yl)pentanoic acid]	2.1 to 20 nM	
C[C@@H](NC(=O)c1ccc2nc(-c3ccc(F)cc3)c(CCCC(F)(F)C(=O)O)nc2c1)c1ccc(F)cc1 [compound 487, (R)-2,2-difluoro-5-(3-(4-fluorophenyl)-7-((1-(4-fluorophenyl)ethyl)carbamoyl)quinoxalin-2-yl) pentanoic acid]	20.1 to 200 nM	
C[C@@H]1CN(c2ccc(F)cc2)CCN1C(=O)c1ccc2nc(-c3ccc(Cl)cc3)c(CCCCC(=O)O)nc2c1 [compound 488, (R)-5-(3-(4-chlorophenyl)-7-(4-(4-fluorophenyl)-2-methylpiperazine-1-carbonyl)quinoxalin-2-yl)pentanoic acid]	2.1 to 20 nM	
C[C@@H]1CN(c2ccc(F)cc2)CCN1C(=O)c1ccc2nc(-c3ccc(F)cc3)c(CCCCC(=O)O)nc2c1 [compound 489, (R)-5-(3-(4-fluorophenyl)-7-(4-(4-fluorophenyl)-2-methylpiperazine-1-carbonyl)quinoxalin-2-yl)pentanoic acid]	2.1 to 20 nM	
C[C@H]1CN(c2ccc(F)cc2)CCN1C(=O)c1ccc2nc(-c3ccc(Cl)cc3)c(CCCCC(=O)O)nc2c1 [compound 490, (S)-5-(3-(4-chlorophenyl)-7-(4-(4-fluorophenyl)-2-methylpiperazine-1-carbonyl)quinoxalin-2-yl)pentanoic acid]	2.1 to 20 nM	
O=C(O)CCCCc1nc2cc(C(=O)N[C@@H]3CCOc4ccccc43)ccc2nc1-c1ccc(F)cc1 [compound 491, (R)-5-(7-(chroman-4-ylcarbamoyl)-3-(4-fluorophenyl)quinoxalin-2-yl)pentanoic acid]	0.1 to 2 nM	
O=C(O)CCCCc1nc2cc(C(=O)N[C@H]3CCOc4ccccc43)ccc2nc1-c1ccc(F)cc1 [compound 492, (S)-5-(7-(chroman-4-ylcarbamoyl)-3-(4-fluorophenyl)quinoxalin-2-yl)pentanoic acid]	2.1 to 20 nM	
C[C@@H](NC(=O)c1ccc2nc(-c3ccc(Cl)cc3)c(CCCCC(=O)O)nc2c1)c1cccc2ccccc12 [compound 493, (R)-5-(3-(4-chlorophenyl)-7-((1-(naphthalen-1-yl)ethyl)carbamoyl)quinoxalin-2-yl)pentanoic acid]	2.1 to 20 nM	
C[C@H](NC(=O)c1ccc2nc(-c3ccc(Cl)cc3)c(CCCCC(=O)O)nc2c1)c1cccc2ccccc12 [compound 494, (S)-5-(3-(4-chlorophenyl)-7-((1-(naphthalen-1-yl)ethyl)carbamoyl)quinoxalin-2-yl)pentanoic acid]	2.1 to 20 nM	
C[C@@H](NC(=O)c1ccc2nc(-c3ccc(Cl)cc3)c(CCCCC(=O)O)nc2c1)c1ccc2ccccc2c1 [compound 495, (R)-5-(3-(4-chlorophenyl)-7-((1-(naphthalen-2-yl)ethyl)carbamoyl)quinoxalin-2-yl)pentanoic acid]	2.1 to 20 nM	
C[C@H](NC(=O)c1ccc2nc(-c3ccc(Cl)cc3)c(CCCCC(=O)O)nc2c1)c1ccc2ccccc2c1 [compound 496, (S)-5-(3-(4-chlorophenyl)-7-((1-(naphthalen-2-yl)ethyl)carbamoyl)quinoxalin-2-yl)pentanoic acid]	2.1 to 20 nM	
C[C@H]1CN(c2ccc(F)cc2)CCN1C(=O)c1ccc2nc(-c3ccc(F)cc3)c(CCCCC(=O)O)nc2c1 [compound 497, (S)-5-(3-(4-fluoro-phenyl)-7-(4-(4-fluorophenyl)-2-methylpiperazine-1-carbonyl)quinoxalin-2-yl)pentanoic acid]	2.1 to 20 nM	
C[C@@H]1CN(c2ccccc2)CCN1C(=O)c1ccc2nc(-c3ccc(Cl)cc3)c(CCCCC(=O)O)nc2c1 [compound 498, (R)-5-(3-(4-chlorophenyl)-7-(2-methyl-4-phenyl-piperazine-1-carbonyl)quinoxalin-2-yl)pentanoic acid]	2.1 to 20 nM	
C[C@@H]1CN(c2ccccc2)CCN1C(=O)c1ccc2nc(-c3ccc(F)cc3)c(CCCCC(=O)O)nc2c1 [compound 499, (R)-5-(3-(4-fluorophenyl)-7-(2-methyl-4-phenyl-piperazine-1-carbonyl)quinoxalin-2-yl)pentanoic acid]	2.1 to 20 nM	
O=C(N[C@@H]1CCCc2ccccc21)c1ccc2nc(-c3ccc(F)cc3)c(CC[C@@H]3C[C@H]3C(=O)O)nc2c1 [compound 500, (1R,2R)-2-(2-(3-(4-fluorophenyl)-7-(((R)-1,2,3,4-tetrahydronaphthalen-1-yl)carbamoyl)quinoxalin-2-yl)ethyl)cyclopropane-carboxylic acid]	2.1 to 20 nM	
O=C(N[C@@H]1CCCc2ccccc21)c1ccc2nc(-c3ccc(F)cc3)c(CCC3CC3C(=O)O)nc2c1 (stereo partly drawn) [compound 501, 2-(2-(3-(4-fluorophenyl)-7-(((R)-1,2,3,4-tetrahydronaphthalen-1-yl)carbamoyl)quinoxalin-2-yl)ethyl)cyclopropane-carboxylic acid]	20.1 to 200 nM	
O=C(O)CCCCc1nc2cc(C(=O)NC3CCCc4cc(C(F)(F)F)cnc43)ccc2nc1-c1ccccc1 (stereo not shown) [compound 502, 5-(3-phenyl-7-((3-(trifluoromethyl)-5,6,7,8-tetrahydroquinolin-8-yl)carbamoyl)quinoxalin-2-yl)pentanoic acid]	20.1 to 200 nM	
O=C(O)CCCCc1nc2cc(C(=O)N[C@@H]3CCCc4ncccc43)ccc2nc1-c1ccccc1 [compound 503, (R)-5-(3-phenyl-7-((5,6,7,8-tetrahydroquinolin-5-yl)carbamoyl)quinoxalin-2-yl)pentanoic acid]	20.1 to 200 nM	
O=C(O)CCCCc1nc2cc(C(=O)N[C@H]3CCCc4ncccc43)ccc2nc1-c1ccccc1 [compound 504, (S)-5-(3-phenyl-7-((5,6,7,8-tetrahydroquinolin-5-yl)carbamoyl)quinoxalin-2-yl)pentanoic acid]	2.1 to 20 nM	
O=C(O)CCCCc1nc2cc(C(=O)NC3CCCc4cnccc43)ccc2nc1-c1ccccc1 (stereo not shown) [compound 505, 5-(3-phenyl-7-((5,6,7,8-tetrahydroisoquinolin-5-yl)carbamoyl)quinoxalin-2-yl)pentanoic acid]	2.1 to 20 nM	
O=C(O)CCCCc1nc2cc(C(=O)N[C@@H]3CCOc4ccccc43)ccc2nc1-c1ccc(Cl)cc1 [compound 506]	0.1 to 2 nM	
O=C(O)CCCCc1nc2cc(C(=O)N[C@H]3CCOc4ccccc43)ccc2nc1-c1ccc(Cl)cc1 [compound 507, (S)-5-(3-(4-chlorophenyl)-7-(chroman-4-ylcarbamoyl)quinoxalin-2-yl)pentanoic acid]	0.1 to 2 nM	1.3 nM
O=C(O)CCCCc1nc2cc(C(=O)N[C@H]3c4ccccc4C[C@H]3O)ccc2nc1-c1ccc(F)cc1 [compound 508, 5-(3-(4-fluorophenyl)-7-(((1S,2R)-2-hydroxy-2,3-dihydro-1H-inden-1-yl)carbamoyl)quinoxalin-2-yl)pentanoic acid]	2.1 to 20 nM	
O=C(O)CCCCc1nc2cc(C(=O)N[C@@H]3c4ccccc4C[C@@H]3O)ccc2nc1-c1ccc(F)cc1 [compound 509, 5-(3-(4-fluorophenyl)-7-(((1R,2S)-2-hydroxy-2,3-dihydro-1H-inden-1-yl)carbamoyl)quinoxalin-2-yl)pentanoic acid]	20.1 to 200 nM	
